Assay [1] has as its system Wnt/β-catenin pathway. Description: SuperTOPFLASH (STF1.1 Hek-293) Wnt/β-catenin-driven luciferase reporter. It counts as cell-based. The method, then: A. Wnt/β-Catenin Activity: The Initial SuperTOPFLASH Screen.
(§1) Hek293 cells were stably transfected with plasmid that contains multiple TCF/LEF fragments in front of Luciferase gene. Wnt/β-catenin activity was determined from luciferase expression levels. […] Briefly, stably transfected Hek-293, STFI.1 (Wnt/β-catenin-driven luciferase) and Survivin-Hek-293 (1 Kb Human survivin promoter-driven luciferase) cells were maintained in DMEM, 10% FBS, Pen/Strep with 400 μg/mL G418 or 2 μg/mL puromycin, respectively. To check the activity of ICG-001, YH249, and YH250, the cells were split into white-opaque 96-well plates at 10,000 cells per well and allowed to attach overnight. For SuperTOPLASH, the inhibitors were added to the cells and pre-incubated for 1 hour prior to stimulation with 10 mM Li Cl for 24 hours. Luciferase activity was read using BrightGlo (Promnega) luciferase substrate. For survivin/luc, the inhibitors were added to the cells and incubated for 24 hours prior to readout. To calculate IC5o values, the resulting curve was fitted to a four-parameter logistic model (4PL) using GraphPad Prism 5 software.
(§2) An endogenous human survivin 1 kb promoter was inserted before a luciferase gene. […] R1 and R2 were diversified in this study. Percent inhibition of luciferase activity was calculated according to the following equations; % inhibition of STF 1.1 reporter activity=(I−RLU(10 mM LiCl) treated/RLU(10 omM LiCl) vehicle×control)100, % inhibition of Survivin reporter activity=(1−RLUtreated/RLU vehicle control)×100. Error bars indicate the mean±SE of 3 separate experiments. Selectivity (FIG. 2H) was calculated by IC50 value for Survivin-Hek-293/IC50 value for STF 1.1.
A general note: Reporter assays use an easily measured gene product as a stand-in for the process of interest.

Assay [2] has as its system Human survivin promoter. Description: Survivin/luciferase reporter (Survivin-Hek-293). Format: cell-based. How it is done:
as §1
B. Survivin Expression Level: The Secondary Screen.
as §2

The target in assay [3] is T1, p300/γ-catenin interaction (Mus musculus, UniProt B2RWS6).
T1 construct: bone marrow Sca-1posit cells were isolated with Anti-Sca-1 microbeads; from tissue; host or cells: bone marrow Sca-1 positive cells of female C57/Black mice dosed in vivo
Put plainly: Co-IP of bone marrow Sca-1posit cells from treated mice (anti-p300). Format: in vivo. The settings on record: YH250 2 mg/kg subcutaneously, 24 hrs. How it is done:
(§3) YH250 was used in this study. Female C57/Black mice were administrated with either DMSO (solvent control) or YH250 (2 mg/kg) subcutaneously. 24 hrs later, bone marrow Sca-1posit cells were isolated with Anti-Sca-1 microbeads (Miltenyi Biotec, Cat#130-092-529) for co-immunoprecipitation (FIG. 4A). Cells were then lysed and incubated with either anti-CBP (A22) or anti-p300 (C20) antibodies. Then, the immunoprecipitation complex were electrophoresed and detected with antibodies to either β-catenin or γ-catenin. […] This confirms that YH250 directly disrupts the p300/catenin interaction thereby enhancing the CBP/catenin interaction in HSPCs.

Assay [4] deals with T2, CBP/γ-catenin interaction (Mus musculus, UniProt P45481).
T2 construct: bone marrow Sca-1posit cells were isolated with Anti-Sca-1 microbeads; from tissue; host or cells: bone marrow Sca-1 positive cells of female C57/Black mice dosed in vivo
T2 sequence (P45481 2-2441 limits assumed): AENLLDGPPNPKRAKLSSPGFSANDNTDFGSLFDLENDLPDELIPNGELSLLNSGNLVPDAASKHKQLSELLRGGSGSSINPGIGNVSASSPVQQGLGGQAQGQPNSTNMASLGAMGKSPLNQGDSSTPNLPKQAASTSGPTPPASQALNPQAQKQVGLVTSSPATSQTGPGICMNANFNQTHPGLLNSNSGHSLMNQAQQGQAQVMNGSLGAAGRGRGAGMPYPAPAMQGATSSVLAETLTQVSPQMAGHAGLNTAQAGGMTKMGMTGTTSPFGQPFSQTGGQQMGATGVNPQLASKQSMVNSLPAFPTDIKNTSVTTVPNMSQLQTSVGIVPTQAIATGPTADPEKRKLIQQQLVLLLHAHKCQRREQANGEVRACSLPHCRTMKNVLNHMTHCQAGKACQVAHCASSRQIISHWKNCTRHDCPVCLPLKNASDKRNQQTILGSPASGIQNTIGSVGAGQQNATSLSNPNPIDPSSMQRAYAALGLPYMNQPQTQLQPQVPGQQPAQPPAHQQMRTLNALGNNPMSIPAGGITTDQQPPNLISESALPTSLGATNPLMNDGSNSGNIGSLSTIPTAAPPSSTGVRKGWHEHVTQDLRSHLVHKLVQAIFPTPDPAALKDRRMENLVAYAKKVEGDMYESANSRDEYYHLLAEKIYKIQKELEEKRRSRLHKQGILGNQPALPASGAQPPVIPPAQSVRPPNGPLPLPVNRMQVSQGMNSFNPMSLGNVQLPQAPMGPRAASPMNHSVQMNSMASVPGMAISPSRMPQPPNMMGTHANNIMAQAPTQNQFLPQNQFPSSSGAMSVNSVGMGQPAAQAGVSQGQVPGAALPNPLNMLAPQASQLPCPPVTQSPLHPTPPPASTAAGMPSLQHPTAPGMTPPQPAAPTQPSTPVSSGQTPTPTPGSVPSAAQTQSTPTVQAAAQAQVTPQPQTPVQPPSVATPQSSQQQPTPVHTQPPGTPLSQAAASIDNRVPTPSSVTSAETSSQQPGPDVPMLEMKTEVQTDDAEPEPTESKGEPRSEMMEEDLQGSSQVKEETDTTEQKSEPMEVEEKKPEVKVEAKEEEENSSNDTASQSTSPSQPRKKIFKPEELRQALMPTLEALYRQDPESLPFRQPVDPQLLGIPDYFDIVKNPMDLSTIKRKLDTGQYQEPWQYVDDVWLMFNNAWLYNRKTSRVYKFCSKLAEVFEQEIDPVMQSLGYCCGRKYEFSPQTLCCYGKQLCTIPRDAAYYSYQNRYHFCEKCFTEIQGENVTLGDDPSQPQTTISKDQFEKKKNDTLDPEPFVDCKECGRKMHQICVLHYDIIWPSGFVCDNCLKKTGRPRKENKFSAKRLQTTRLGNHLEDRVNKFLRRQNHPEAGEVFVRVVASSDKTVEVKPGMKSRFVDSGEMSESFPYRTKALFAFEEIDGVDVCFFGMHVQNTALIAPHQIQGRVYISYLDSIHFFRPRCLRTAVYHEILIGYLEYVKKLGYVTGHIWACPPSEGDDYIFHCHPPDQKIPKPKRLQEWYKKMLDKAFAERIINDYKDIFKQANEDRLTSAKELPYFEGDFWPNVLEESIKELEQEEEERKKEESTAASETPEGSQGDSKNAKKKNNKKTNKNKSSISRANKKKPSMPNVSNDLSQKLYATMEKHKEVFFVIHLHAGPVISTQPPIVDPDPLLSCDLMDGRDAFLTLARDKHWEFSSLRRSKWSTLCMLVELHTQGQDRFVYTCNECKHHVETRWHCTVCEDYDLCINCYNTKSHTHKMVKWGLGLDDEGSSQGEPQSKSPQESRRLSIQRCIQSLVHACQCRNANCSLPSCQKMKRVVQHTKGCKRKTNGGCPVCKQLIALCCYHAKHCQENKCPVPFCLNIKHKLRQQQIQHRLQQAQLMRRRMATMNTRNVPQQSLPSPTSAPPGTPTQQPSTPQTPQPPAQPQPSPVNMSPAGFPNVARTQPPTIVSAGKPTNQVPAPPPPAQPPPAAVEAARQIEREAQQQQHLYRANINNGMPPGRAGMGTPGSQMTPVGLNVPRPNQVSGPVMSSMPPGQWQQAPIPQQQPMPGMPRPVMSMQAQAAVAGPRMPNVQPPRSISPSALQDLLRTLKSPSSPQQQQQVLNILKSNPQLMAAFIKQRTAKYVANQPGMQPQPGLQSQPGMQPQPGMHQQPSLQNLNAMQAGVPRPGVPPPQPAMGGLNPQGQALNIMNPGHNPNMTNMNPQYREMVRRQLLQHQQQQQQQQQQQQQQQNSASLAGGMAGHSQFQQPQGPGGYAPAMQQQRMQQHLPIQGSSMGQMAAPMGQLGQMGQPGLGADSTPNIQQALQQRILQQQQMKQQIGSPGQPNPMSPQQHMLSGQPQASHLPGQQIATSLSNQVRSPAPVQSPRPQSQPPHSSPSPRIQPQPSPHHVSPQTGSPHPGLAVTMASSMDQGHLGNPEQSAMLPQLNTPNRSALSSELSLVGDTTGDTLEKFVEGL
Description: Co-IP of bone marrow Sca-1posit cells from treated mice (anti-CBP). The note with it: YH250 2 mg/kg subcutaneously, 24 hrs. It counts as in vivo. The method, then:
as §3

Assay [5] relates to R1 mESCs. The settings on record: Wnt dependent manner; cited from earlier work.
For assay [6], the system named is mouse bone marrow cells. Description: Colony-forming cell (CFC) assay after 4 h in vitro treatment. It counts as cell-based. The method, then: Brief (less than 24 hours) treatment of HSC with YH250 or DMSO was conducted before the CFC or CFU-S12 assay. Mouse bone marrow cells were treated with DMSO (solvent control) or YH250 for 4 hours in serum free HSC expansion medium before the cells were recovered for a colony forming assay. 7-8 Days after cell plating in methylcellulose medium (Stemcell Technologies, Methocult GF M3434, Cat#3434), colonies were scored, and the cells from each plate were recovered and counted.
In fact, they also show similar biological functions with respect to HSPC.

Assay [7] has as its system bone marrow cells. Put plainly: Brief (4 h) incubation of bone marrow cells, 14 days culture, FACS. The settings on record: 0.5 μM 4 hrs, 14 days culture. Format: cell-based, mouse. The method, then:
Bone marrow cells were treated with DMSO or YH250 (0.5 μM) for 4 hours, then the compound was removed and the cells cultured in QBSF-58 medium for 14 days with 10 ng/ml of SCF, TPO, Flt3 ligand, and IL-6. At the end of culture, cells were recovered and analyzed for LSK cells with FACS.
In a further study, female CD45.1 mice bone marrow cells were incubated with DMSO, or YH249 (0.5 μM) or YH250 (0.5 μM) for 4 hrs in QBSF-58 media, then 2×10^4 cells were plated in QBSF-58 medium containing SCF, TPO, Flt3 and IL-6 (10 ng/ml for each) for 14 days. Cells were then recovered from plate for FACS analysis. […] Correspondingly, there are higher LSK cells (52%, 60% and 70% respectively for DMSO, YH249 and YH250). From every 10,000 analyzed cells, LSKCD34negt cell numbers are 437, 663 and 2051 for DMSO, YH249 and YH250 treated cells, respectively.

In assay [8] the target is T3, p300 (Mus musculus, UniProt B2RWS6).
T3 construct: endogenous in cells; host or cells: lysates of mouse C2C12 myoblasts
T3 sequence (B2RWS6 whole entry): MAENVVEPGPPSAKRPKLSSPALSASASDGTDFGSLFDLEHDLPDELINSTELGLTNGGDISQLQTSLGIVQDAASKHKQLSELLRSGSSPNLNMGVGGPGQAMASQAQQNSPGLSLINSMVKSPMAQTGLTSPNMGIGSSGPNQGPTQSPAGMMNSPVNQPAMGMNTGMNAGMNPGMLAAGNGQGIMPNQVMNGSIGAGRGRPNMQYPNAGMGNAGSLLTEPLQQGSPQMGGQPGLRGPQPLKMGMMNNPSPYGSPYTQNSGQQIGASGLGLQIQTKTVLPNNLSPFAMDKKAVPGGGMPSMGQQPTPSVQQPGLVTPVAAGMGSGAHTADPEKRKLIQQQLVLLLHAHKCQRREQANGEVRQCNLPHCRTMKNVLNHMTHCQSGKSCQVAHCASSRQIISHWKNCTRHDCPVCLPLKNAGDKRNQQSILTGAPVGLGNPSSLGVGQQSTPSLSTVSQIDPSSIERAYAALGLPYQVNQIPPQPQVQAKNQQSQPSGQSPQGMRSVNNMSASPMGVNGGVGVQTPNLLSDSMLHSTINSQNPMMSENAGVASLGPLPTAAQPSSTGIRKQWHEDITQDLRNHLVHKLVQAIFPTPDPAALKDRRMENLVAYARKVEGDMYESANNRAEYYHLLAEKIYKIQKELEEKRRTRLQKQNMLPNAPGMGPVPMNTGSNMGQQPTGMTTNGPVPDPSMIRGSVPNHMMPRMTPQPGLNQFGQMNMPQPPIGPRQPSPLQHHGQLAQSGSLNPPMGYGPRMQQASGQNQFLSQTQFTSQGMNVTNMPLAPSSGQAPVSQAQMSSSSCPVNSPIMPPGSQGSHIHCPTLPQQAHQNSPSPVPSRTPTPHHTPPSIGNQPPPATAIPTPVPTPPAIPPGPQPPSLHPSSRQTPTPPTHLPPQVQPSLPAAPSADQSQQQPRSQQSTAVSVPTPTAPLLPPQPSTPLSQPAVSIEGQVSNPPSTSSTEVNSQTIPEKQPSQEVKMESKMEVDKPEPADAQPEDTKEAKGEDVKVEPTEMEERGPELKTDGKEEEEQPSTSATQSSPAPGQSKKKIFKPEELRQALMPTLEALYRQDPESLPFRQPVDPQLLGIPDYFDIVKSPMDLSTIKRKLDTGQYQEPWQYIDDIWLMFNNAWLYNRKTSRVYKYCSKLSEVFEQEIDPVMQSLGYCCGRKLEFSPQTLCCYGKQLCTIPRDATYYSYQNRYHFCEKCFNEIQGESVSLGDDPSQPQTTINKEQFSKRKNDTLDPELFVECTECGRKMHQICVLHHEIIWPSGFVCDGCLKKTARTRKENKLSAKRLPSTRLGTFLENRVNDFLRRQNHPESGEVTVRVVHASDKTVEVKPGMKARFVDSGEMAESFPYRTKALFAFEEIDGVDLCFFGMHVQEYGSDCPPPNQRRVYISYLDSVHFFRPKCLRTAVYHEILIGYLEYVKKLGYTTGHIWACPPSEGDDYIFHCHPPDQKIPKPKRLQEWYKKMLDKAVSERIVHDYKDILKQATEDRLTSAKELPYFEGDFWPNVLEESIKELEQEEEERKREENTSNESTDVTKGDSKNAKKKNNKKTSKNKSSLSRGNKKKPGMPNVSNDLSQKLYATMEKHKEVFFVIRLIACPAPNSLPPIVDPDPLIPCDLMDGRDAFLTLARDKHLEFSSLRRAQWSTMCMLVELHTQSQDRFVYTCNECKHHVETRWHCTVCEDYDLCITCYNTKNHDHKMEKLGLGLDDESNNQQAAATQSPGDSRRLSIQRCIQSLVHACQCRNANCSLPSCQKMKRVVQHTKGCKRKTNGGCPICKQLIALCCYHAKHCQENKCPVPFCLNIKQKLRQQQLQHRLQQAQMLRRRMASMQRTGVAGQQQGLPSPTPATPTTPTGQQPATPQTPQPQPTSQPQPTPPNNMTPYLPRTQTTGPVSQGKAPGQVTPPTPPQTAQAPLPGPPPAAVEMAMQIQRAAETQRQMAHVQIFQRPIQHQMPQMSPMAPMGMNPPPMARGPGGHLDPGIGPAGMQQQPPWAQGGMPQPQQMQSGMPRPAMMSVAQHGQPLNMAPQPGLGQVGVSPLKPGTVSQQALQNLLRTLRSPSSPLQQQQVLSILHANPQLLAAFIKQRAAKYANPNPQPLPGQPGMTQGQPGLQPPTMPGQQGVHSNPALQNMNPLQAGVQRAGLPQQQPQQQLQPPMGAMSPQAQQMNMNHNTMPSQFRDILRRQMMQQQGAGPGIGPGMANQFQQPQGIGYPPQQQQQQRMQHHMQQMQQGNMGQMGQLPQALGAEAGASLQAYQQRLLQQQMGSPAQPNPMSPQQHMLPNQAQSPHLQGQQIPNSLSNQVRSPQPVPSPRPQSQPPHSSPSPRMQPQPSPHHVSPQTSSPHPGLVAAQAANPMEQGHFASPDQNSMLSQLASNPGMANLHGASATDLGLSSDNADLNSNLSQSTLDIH
Description: Bio-249 affinity pull-down from C2Cl2 lysates, p300 immunoblot. Format: binding. The method, then: YH249 and YH250 were selected from the compounds described herein for further testing. Co-immunoprecipitation (CO-IP) was performed with mouse myoblast C2Cl2 cells. Cells were treated with DMSO (control), or YH249, or YH250 for 24 hours. Cell lyses were pulled down with anti-p300 or anti-CBP antibodies, run on gel and probed with anti-β-catenin antibody. […] A biotinylated version of YH249 (Bio-249) was prepared via the propargyl amide variant. Using a biotin with a linker and a terminal azide residue, we were able to couple the biotin to the YH249 core via a 3+2 cyclization reaction to provide Bio-249. Bio-249 was incubated with lysates from C2Cl2 myoblasts, either in the presence or absence of competitor YH249 for 4 h at 4° C. and then bound to streptavidin agarose beads. After extensive washing the bound proteins were eluted and run out on an […].

Assay [9] has as its system H9 human embryonic stem cells. Put plainly: Maintenance of human ES cell pluripotency, 5 days. The settings on record: 25 ng/ml Wnt3a; 500 nM YH249 or 200 nM YH250, 5 days, without FGF and TGF. It counts as cell-based. How it is done: (§4) We also determined that IQ-1 indirectly, via binding to the PR72/130 subunit of PP2A, inhibited the p300/β-catenin interaction (Id). Therefore, we anticipated that YH249/250 should also maintain mESC pluripotency in a Wnt dependent manner. To test his, R1 mESCs were cultured under feeder free conditions in the presence or absence of YH249/250 for 5 days. […] Pluripotency markers, Oct4, Nanog, Sox2, SSEA-1 and ALP, were all expressed in the cells treated with Wnt3a and YH250 (FIG. 28b). Moreover, Wnt3a could be replaced with the selective GSK-3 inhibitor CHIR99021, which activates the Wnt signaling pathway (FIG. 28a, lower panel). […] In the event, similarly to ID-8, the combination of Wnt3a and YH249/250 provided morphologically undifferentiated colonies of H9 human embryonic stem cells (hESCs) without FGF and TGF (FIG. 28c). hPSC markers were detected by ALP staining and immunofluorescence (FIG. 28d). In addition to H9 cells, two other hESC lines and a human induced pluripotent stem (iPS) cell line could be also maintained undifferentiated morphology utilizing the same conditions (not shown).
Specifically, FIG. 28A-28D, show maintenance of ESC's pluripotency by YH249 and YH250. […] 28A, Typical colony morphologies of RI mouse ES cells cultured 5 days in [upper panel] […]

Assay [10] concerns R1 mESCs. Put plainly: Maintenance of mouse ES cell pluripotency, feeder free, 5 days. It counts as cell-based. The settings on record: with 50 ng/ml Wnt3a or 3 μM CHIR99021; 500 nM YH249 or 200 nM YH250, 5 days. How it is done: as §4
Specifically, FIG. 28A-28D, show maintenance of ESC's pluripotency by YH249 and YH250. […] 28A, Typical colony morphologies of RI mouse ES cells cultured 5 days in [upper panel] 3 μM CHIR99021 and 1 μM PD0325901 (2i) medium, basal medium (2i medium without CHIR99021 and PD0325901), basal medium supplemented with 50 ng/ml Wnt3a alone, [middle panel] combination of 50 ng/ml Wnt3a and 2 μM IQ-1, 500 nM YH249 or 200 nM YH250, [lower panel] 3 μM of CHIR99021 alone, and combination of 3 μM CHIR99021 and 500 nM YH249 or 200 nM YH250. […] The blue signal (Wnt3a panels) represents DAPI nuclear staining. Bars indicate […]. […] The blue signal (Wnt3a panels) represents DAP1 nuclear staining. Scale bars indicate 100 am.

Where [11] appears, read: 4 hours incubation then CFC assay.

Some results are limits rather than exact numbers.

Consider 3 compounds from patent US20190125753A1, “COMPOUNDS AND METHODS FOR INCREASING HEMATOPOIESIS” (University of Southern California, priority 2016, published 2019).

For `O=C1[C@H](Cc2ccc(O)cc2)N2C(=O)CCN(C(=O)NCc3ccccc3)[C@H]2CN1Cc1cccc2ccccc12` [ICG-001, reference compound], the “luciferase activity (Wnt/β-catenin activity)” value in [1] (Hek293 TCF/LEF luciferase) was “luciferase activity was decreased”. For the same compound, in assay [2], the “survivin expression level in survivin-reporter system” value is on record as “significantly decreased in a dose dependent manner”. Further, the p300/γ-catenin interaction result in assay [3] was “promotes p300/γ-catenin interaction”. Moreover, in [4], the CBP/γ-catenin interaction result is reported as “inhibits CBP/γ-catenin interaction”.
Consider `CC(=O)c1ccc(NN=C(C(N)=O)C2=NC(C)(C)Cc3ccccc32)cc1` [IQ-1], for which, in assay [5], the “mESC pluripotency (previously reported)” value is “maintain long term mESC pluripotency”.
Take `COc1cccc(CNC(=O)N2C3CN(Cc4cccc(Cl)c4N(C)C)C(=O)[C@H](Cc4ccc(O)cc4)N3C(=O)CN2C)c1OC` (some centres unmarked) [YH249]: in assay [6] (setting [11]), the “CELL#/plate” value is listed as 5.2 × 10^5 and the “CFC#/plate” value is reported as 27. The “cell number in each plate vs DMSO” value in assay [6] (4 hours treatment, cells recovered from plate) was “higher cell number in each plate”. Besides, in [1] (Homo sapiens, HEK293, STF1.1 Hek-293, 1 hour pre-incubation, 10 mM LiCl 24 hours), the IC50 is < 0.1 µM. Moreover, the IC50 in assay [2] (Homo sapiens, Survivin-Hek-293, 24 hours, read-out: survivin/luciferase reporter: did not inhibit up to) was > 20 µM. Further, the lineage negative cell in assay [7] (DMSO 9%) stood at 17%. Besides, the LSK cells in assay [7] (DMSO 52%) is 60%. This compound registered an LSKCD34negt cell numbers in assay [7] (from every 10,000 analyzed cells, DMSO 437) of 663. Also, in [8] (C2Cl2 lysates, 4 h at 4° C., streptavidin agarose beads), the “binding to p300 (affinity precipitation, p300 immunoblot)” value is “directly binding to p300”. For the same compound, in [8] (free competitor), the “competition of the band precipitated by Bio-249” value is recorded as “strongly competed out”. The hESC pluripotency result in [9] is “maintain pluripotency”. For the same compound, in assay [10], the mESC pluripotency entry was “maintain pluripotency”.
